Experimental data from article PMC5705984, “Membrane-Active Properties of an Amphitropic Peptide from the CyaA Toxin Translocation Region” (Toxins, 2017).
“Also recorded” adds a separate entry of the source.

Assay: Peptide partition from solution to membrane followed by tryptophan intrinsic fluorescence titration
Assay type: physicochemical
Conditions: for ability to interact with / partition into membranes: tryptophan fluorescence and CD; for ΔG (free energy of membrane partition): ΔG=−RTln(KX)
Experimental: Small unilamellar vesicles (SUVs) were prepared at a lipid concentration of 10 mM from POPC and POPG at a molar ratio of 10:0 or 8:2 or from DOPC, DOPE, DOPG, Chol at molar ratio 10:0:0:0, 8:0:2:0, 7:3:0:0, 7:0:0:3, 6:3:0:1, and 4:3:2:1 in buffer A, as previously described. Briefly, SUVs were prepared by reverse-phase evaporation and passed through polycarbonate filters 0.8-, 0.4-, and 0.2-μm (Merck Millipore, Darmstadt, Germany). Vesicles were sonicated using a sonicator tip and their hydrodynamic diameters, dispersity, and charge were checked by dynamic light scattering (DLS) and electrophoretic mobility using a NanoZS instrument (Malvern Instruments, Orsay, France).
Fluorescence titrations were performed with a FP-8200 Jasco spectrofluorimeter, equipped with a Peltier-thermostated ETC-272T (25 °C). A bandwidth of 5 nm was used for both excitation and emission beams. Fluorescence experiments were carried out in a 109.004F-QS cuvette (Hellma, France) with constant stirring. Fluorescence emission was recorded between 300 and 400 nm at a scan rate of 200 nm/min, with an excitation wavelength of 280 nm. Fluorescence emission spectra were corrected for SUV light scattering. Maximum emission wavelength (λmax) and fluorescence intensity ratio at 330 nm over 370 nm (P454-derived peptides) or at 340 nm over 380 nm (CyaA-derived peptides) were used to report peptide-membrane interaction and to measure the partition coefficient KX.
The partition coefficient KX is defined as the ratio of protein concentrations in the lipid and in buffer phases. It is expressed as follows:
KX=PL/PW·[W]/[L] , providing PW/PL=[W]/KX[L] , where PW is the concentration of peptide in solution, PL the concentration of peptides partitioning into lipid membrane, [W] represents the concentration of water, and [L] the lipid concentration.
The fraction of peptide partitioned into the membrane phase, fPL, is equal to: fPL=PL/PT=PL/PL+PW=1/(PW/PL)+1=1/([W]/KX[L])+1
The partition coefficient is related to the apparent dissociation constant as follows: KX * KD = [W] with KD * PL = PW * [L]. The equation fPL is fitted to the experimental data using the KaleidaGraph software, providing KX. The free energy corresponding to the transfer of the peptide from the aqueous phase to the lipid phase is given by the equation ΔG=−RTln(KX) , where ΔG is the free energy in kcal/mol, R the gas constant (R = 1.98 × 10^−3 kcal/mol/K), and T the temperature in Kelvin.

[1] = SUVs DOPC/DOPE/DOPG/Chol 4:3:2:1, Trp fluorescence titration (exc. 280 nm, ratio 340/380 nm), 20 mM HEPES, 150 mM NaCl, pH 7.4, 25 °C
[2] = SUVs DOPC/DOPE/DOPG/Chol 4:3:2:1
[3] = SUVs DOPC/DOPE/DOPG/Chol 4:3:2:1, pH 7.4, 25 °C
[4] = SUVs DOPC/DOPG 8:2, Trp fluorescence titration (exc. 280 nm, ratio 330/370 nm), 20 mM HEPES, 150 mM NaCl, pH 7.4, 25 °C, S.D. within ±5%
[5] = SUVs DOPC/DOPG 8:2, pH 7.4, 25 °C, S.D. ±0.1 kcal/mol
[6] = SUVs DOPC, Trp fluorescence titration (exc. 280 nm, ratio 330/370 nm), 20 mM HEPES, 150 mM NaCl, pH 7.4, 25 °C, S.D. within ±5%
[7] = SUVs DOPC, pH 7.4, 25 °C, S.D. ±0.1 kcal/mol
[8] = SUVs POPC/POPG 8:2, Trp fluorescence titration (exc. 280 nm, ratio 330/370 nm), 20 mM HEPES, 150 mM NaCl, pH 7.4, 25 °C, S.D. within ±5%
[9] = SUVs POPC/POPG 8:2, pH 7.4, 25 °C, S.D. ±0.1 kcal/mol
[10] = SUVs POPC, Trp fluorescence titration (exc. 280 nm, ratio 330/370 nm), 20 mM HEPES, 150 mM NaCl, pH 7.4, 25 °C, S.D. within ±5%
[11] = SUVs POPC, pH 7.4, 25 °C, S.D. ±0.1 kcal/mol

| Compound | partition coefficient KX [1] | ability to interact with / partition into membranes [2] | ΔG (free energy of membrane partition) [3] [kcal/mol] | partition coefficient KX [4] | ΔG (free energy of membrane partition) [5] [kcal/mol] | partition coefficient KX [6] | ΔG (free energy of membrane partition) [7] [kcal/mol] | partition coefficient KX [8] | ΔG (free energy of membrane partition) [9] [kcal/mol] | partition coefficient KX [10] | ΔG (free energy of membrane partition) [11] [kcal/mol] | also measured |
| --- | --- | --- | --- | --- | --- | --- | --- | --- | --- | --- | --- | --- |
| CC[C@H](C)[C@H](NC(=O)[C@H](CCCCN)NC(=O)[C@H](Cc1c[nH]c2ccccc12)NC(=O)[C@H](CC(C)C)NC(=O)[C@H](CC(C)C)NC(=O)[C@H](CC(=O)O)NC(=O)[C@@H](NC(=O)[C@H](CCCNC(=N)N)NC(=O)[C@H](CCC(=O)O)NC(=O)[C@H](CCCNC(=N)N)NC(=O)[C@H](CC(=O)O)NC(=O)[C@H](CC(C)C)NC(C)=O)[C@@H](C)CC)C(=O)N[C@@H](C)C(=O)N[C@@H](CCCNC(=N)N)C(=O)N[C@@H](C)C(=O)NCC(=O)N[C@@H](C)C(=O)N[C@@H](CCCNC(=N)N)C(=O)N[C@@H](CO)C(=O)N[C@@H](C)C(=O)N[C@H](C(=O)NCC(N)=O)C(C)C [Peptide P233] | 60 000 | able to interact with membranes | -6.5 | – | – | – | – | – | – | – | – | – |
| CC[C@H](C)[C@H](NC(=O)[C@H](C)NC(=O)[C@H](Cc1c[nH]cn1)NC(=O)[C@@H](NC(=O)[C@H](CC(C)C)NC(=O)[C@H](CCCNC(=N)N)NC(=O)[C@H](CCC(N)=O)NC(=O)[C@H](C)NC(=O)[C@H](C)NC(=O)[C@H](C)NC(=O)[C@@H](NC(=O)[C@H](C)NC(=O)[C@H](CCC(N)=O)NC(=O)[C@H](C)NC(=O)CNC(=O)[C@H](CCC(N)=O)NC(=O)[C@H](CC(C)C)NC(=O)[C@H](C)NC(=O)[C@H](CCCNC(=N)N)NC(=O)[C@H](CCC(N)=O)NC(=O)CNC(=O)[C@H](Cc1c[nH]c2ccccc12)NC(=O)[C@H](Cc1c[nH]cn1)NC(=O)[C@H](C)NC(=O)[C@H](CO)NC(=O)[C@H](C)NC(C)=O)C(C)C)C(C)C)C(=O)N[C@@H](C)C(=O)N[C@@H](CC(C)C)C(=O)N[C@@H](CCSC)C(=O)N[C@H](C(=O)N[C@@H](CCC(N)=O)C(N)=O)[C@@H](C)O [Peptide P454] | 300 000 | able to interact with membranes | -7.4 | 1 200 000 | -8.3 | 505 000 | -7.8 | 790 000 | -8 | 150 000 | -7 | membrane partition on addition of both POPE and cholesterol to POPC (POPC with POPE and cholesterol, data not shown): totally abolishes the partition; partition coefficient KX (SUVs DOPC/Chol 7:3, Trp fluorescence titration, pH 7.4, 25 °C, S.D. within ±5%): 60 000; ΔG (free energy of membrane partition) (SUVs DOPC/Chol 7:3, pH 7.4, 25 °C): -6.5 kcal/mol; partition coefficient KX (SUVs DOPC/DOPE 7:3, Trp fluorescence titration, pH 7.4, 25 °C, S.D. within ±5%): 80 000; ΔG (free energy of membrane partition) (SUVs DOPC/DOPE 7:3, pH 7.4, 25 °C): -6.7 kcal/mol; partition coefficient KX (SUVs DOPC/DOPE/Chol 6:3:1, Trp fluorescence titration, pH 7.4, 25 °C, S.D. within ±5%): 40 000; ΔG (free energy of membrane partition) (SUVs DOPC/DOPE/Chol 6:3:1, pH 7.4, 25 °C): -6.3 kcal/mol; ΔΔG, net contribution of arginine residues to partition compared to the lysine residues of R12K (native P454 vs R12K, all membrane lipid compositions tested): ~0.5 ± 0.2 kcal/mol |
| Ac-APEVIARADNDVNSSLAHGW-NH2 [Peptide P89] | – | no detectable change of tryptophan fluorescence or CD signature; also recorded: do not | – | – | – | – | – | – | – | – | – | – |
| Ac-ASAHWGQAALQGAQAVAAAQALVHAIALMTQ-NH2 [P454 R12A] | – | – | – | 795 000 | -8 | 610 000 | -7.9 | 275 000 | -7.4 | 195 000 | -7.2 | – |
| Ac-ASAHWGQEALQGAQAVAAAQELVHAIALMTQ-NH2 [P454 R12E] | – | – | – | 70 000 | -6.6 | 85 000 | -6.7 | 30 000 | -6.1 | 7 000 | -5.2 | – |
| Ac-ASAHWGQKALQGAQAVAAAQKLVHAIALMTQ-NH2 [P454 R12K] | – | – | – | 750 000 | -8 | 265 000 | -7.4 | 215 000 | -7.3 | 60 000 | -6.5 | – |
| Ac-ASAHWGQQALQGAQAVAAAQQLVHAIALMTQ-NH2 [P454 R12Q] | – | – | – | 310 000 | -7.5 | 195 000 | -7.2 | 70 000 | -6.6 | 35 000 | -6.2 | – |
| Ac-ASAHWGQQALQGAQAVAAAQRLVHAIALMTQ-NH2 [P454 R1Q] | – | – | – | 670 000 | -7.9 | 340 000 | -7.5 | 190 000 | -7.2 | 75 000 | -6.6 | – |
| Ac-ASAHWGQRALQGAQAVAAAQQLVHAIALMTQ-NH2 [P454 R2Q] | – | – | – | 655 000 | -7.9 | 260 000 | -7.4 | 150 000 | -7 | 90 000 | -6.7 | – |
| Ac-AYFEKNLQARHEQLANSDGLRKMLADLQAGWNASS-NH2 [Peptide P737] | 20 000 | able to interact with membranes | -5.8 | – | – | – | – | – | – | – | – | – |
| Ac-EASSAVAETVSGFFRGW-NH2 [Peptide P509] | 80 000 | able to interact with membranes | -6.7 | – | – | – | – | – | – | – | – | – |
| Ac-IIEKLANDYARKIDELGW-NH2 [Peptide P717] | 60 000 | able to interact with membranes | -6.5 | – | – | – | – | – | – | – | – | – |
| Ac-IPAAVLDGIKAVAKEKNW-NH2 [Peptide P19] | – | no detectable change of tryptophan fluorescence or CD signature; also recorded: do not | – | – | – | – | – | – | – | – | – | – |
| Ac-LVQQSHYADQLDKLAQESSAYGW-NH2 [Peptide P626] | – | no detectable change of tryptophan fluorescence or CD signature; also recorded: do not | – | – | – | – | – | – | – | – | – | – |
| Ac-QEAASLSAAVFGLGEASSAVAETVSGFFRGW-NH2 [Peptide P495] | 130 000 | able to interact with membranes | -6.9 | – | – | – | – | – | – | – | – | – |
| Ac-TTEISKSALELAAITGNW-NH2 [Peptide P777] | – | no detectable change of tryptophan fluorescence or CD signature; also recorded: do not | – | – | – | – | – | – | – | – | – | – |
